These results are taken from US10799593B2, “Nanodiamond particle complexes” (priority 2008, dated 2020).

SMILES strings stand for the structures.

Data set [1] concerns RAW 264.7 murine macrophages. The data set can be described thus: DNA fragmentation assay on DOX-ND Parylene C devices. In kind it is cell-based. The settings on record: 16 and 20 hours, DOX positive control 2.5 μg/mL. Here is the method: Materials and Device Fabrication. A conformal 3 g base layer of Parylene C was deposited on pre-cut 2.5 cm×2.5 cm glass slides with a […] COATING SYSTEMS (SCS) PDS 2010 LABCOATER (SCS, Indianapolis, Ind.). The Parylene layer was oxidized via oxygen plasma treatment in a HARRICK Plasma Cleaner/Sterilizer (Ithaca, N.Y.) at 100 W for one minute. A DOX-ND solution was then added to the base layer so that the final DOX-ND concentration in solution was 6.6 μg/ml. Subsequently, solvent evaporation occurred in isolation at room temperature. Following DOX-ND deposition, an ultra-thin 0.15 g palylene C layer was deposited as an elution-limiting and control element. The final layer of Parylene C was treated with oxygen plasma at 100 W for one minute. Parylene C was pyrolized into a gaseous monomer at 690° C., and deposited at room temperature under vacuum conditions for all depositions. The preceding parameters apply to devices fabricated for spectroscopy studies. The present invention is not limited to these parameters. The concentration of DOX-ND was adjusted for devices used in the DNA fragmentation assay so that the final DOX-ND concentration in solution was 33 μg/ml.
DNA Fragmentation Assay. […]

The subject of the next data set is RAW 264.7 macrophages. The data set can be described thus: Electrophoretic DNA fragmentation assay on Parylene A substrates. In kind it is cell-based, murine. The text has this:
Substrate Preparation. Plain glass slides were sterilized in 70% ethanol and pre-treated with A-174 Silane (SCS COATINGS, Indianapolis, Ind.) adhesion promoter according to manufacturer's protocol. Approximately 20 grams of Parylene A (UNIGLOBE KISCO, White Plains, N.Y.) was loaded into a Parylene deposition system (PDS) 2010 LABCOTER® 2 (SCS COATINGS.) The deposition took place under previously indicated conditions (Kramer et al. 1984, 22, 475, Yang et al. Journal of Crystal Growth 1998, 183, 385, herein incorporated by reference in their entireties). Application of drug to the base layer of Parylene A was accomplished via desiccation of 100 μg dexmnethasone (SIGMA ALDRICH, St Louis, Mo.), or 25 μg doxorubicin (U.S. PHARMACOPIA, Rockville, Md.) under a laminar flow hood. A second layer of 150 mg of Parylene A was deposited over the drug films to produce the eluting layer.
Cell Culture Conditions. Macrophage cell line RAW 264.7 (AICC Manassas, Va.) cells were grown in DMEM media ([…] Inc, Hemdon, Va.) supplemented with 10% FBS (AICC) and 1% Penicillin/Streptomycin (LONZA, Walkersville, Md.). Investigation of inflammation pathways utilized lipo-polysacchmide 5 ng/ml (SIGMA ALDRICH) and resultant expression of IL-6 and TNF-α genes. Analysis of cellular apoptosis was accomplished using agarose electrophoresis of DNA fragmentation.
Electrophoretic Assay. […]

The conditions of data set [2]: PBS compared with water; Pierstorff et al. 2008; cited from earlier work.
A short description of data set [3]: Spectroscopic analysis of DOX elution from Parylene A bi-layer. In kind it is physicochemical. The note with it: PBS. Here is the method: Spectroscopy Analysis. […] Samples were placed in a 12 well plate immersed in 1.0 ml of PBS for 10 min, 20 min, 40 min, 1 hour, 4 hour, and 24 hour increments. After each time point the solution was removed and the drug eluting glass disks were transferred to a vacant well and replenished with […] of PBS. Remaining solutions were analyzed in a DU Series 700 UV-Vis Scanning Spectrophotometer (BECKMAN COULTER, Fullerton, Calif.).

`COc1cccc2c1C(=O)c1c(O)c3c(c(O)c1C2=O)C[C@@](O)(C(=O)CO)C[C@@H]3O[C@H]1C[C@H](N)[C@H](O)[C@H](C)O1` [DOX, doxorubicin]: the “DNA fragmentation / onset of apoptosis” value in data set [1] is “rigorous DNA fragmentation”. Further, the “DNA fragmentation (apoptosis), electrophoretic gel” value with RAW 264.7 macrophages is given as “fragmentation of DNA indicative of cells actively undergoing apoptosis”. Further, the solubility result in data set [2] was “less soluble in PBS”. In addition, the entries for the “release of DOX, additive spectroscopic scans” value in data set [3] (control: DOX applied to a base layer of Parylene A) and in data set [3] (pinhole sample: DOX between Parylene A layers) were “complete release of DOX” and “gradual release of DOX”, respectively.
